# Paper PMC8134483 (Scientific Reports, 2021)
# Read-outs that look alike come from different tables or passages of the source.
# Assays:
# hCB1R [1] = biological target: T1, hCB1R (Homo sapiens, UniProt P21554); test: biochemical; format: binding
# T1 construct: expressed in transfected cells; host or cells: CHO-K1
# hCB1R [2] = biological target: T1, hCB1R; test: cell-based; format: cell-based; settings: for EC50: CHO hCB1R, 10 µM FSK, 90 min, value with 95% CI, read-out: CB1R cAMP Inhibition EC50; for Emax: read-out: CB1R cAMP Inhibition Emax
# hCB1R [3] = biological target: T1, hCB1R; test: cell-based; format: cell-based; settings: for CB1R versus CB2R selectivity, βarrestin2 recruitment: CB1R vs CB2R; for EC50: CHO hCB1R, 90 min, value with 95% CI, read-out: CB1R βarrestin2 recruitment EC50; for Emax: read-out: CB1R βarrestin2 recruitment Emax; for βarrestin2 recruitment to CB1R, activity in words: relative to CP55940
# hCB2R [4] = biological target: T2, hCB2R (Homo sapiens, UniProt P34972); test: [^3H]CP55,940 competition (radioligand displacement) binding to CB2R; settings: for CB2R [^3H]CP55,940 Emin: bottom of the concentration–response curve, mean ± SEM
# T2 construct: host or cells: CHO-K1 (PathHunter)
# hCB2R [5] = biological target: T2, hCB2R; test: HitHunter inhibition of FSK-stimulated cAMP, CB2R; format: cell-based
# hCB2R [6] = biological target: T2, hCB2R; test: PathHunter βarrestin2 recruitment, CB2R; format: cell-based; settings: for βarrestin2 recruitment to CB2R, activity in words: relative to CP55,940
# hCB1R [7] = biological target: T1, hCB1R; test: CB1R bias analysis (operational model, cAMP inhibition vs βarrestin2); format: cell-based; settings: CP55,940 as reference agonist; >0 cAMP bias, <0 βarrestin2 bias
# Description: (§1) Estimates of Ki, EC50, Emin, and Emax were determined using non-linear regression with variable slope (four parameters) (GraphPad, Prism, v. 8.0). […] One-way analysis of variance (ANOVA), followed by Tukey’s post-hoc test, was used for statistical analyses (p < 0.05 determined to be significant); and Bartlett’s test was used to confirm homogeneity of variance (GraphPad).
# hCB2R [8] = biological target: T2, hCB2R; test: CB2R bias analysis (operational model, cAMP inhibition vs βarrestin2); format: cell-based; settings: CP55,940 as reference agonist; >0 cAMP bias, <0 βarrestin2 bias
# Description: as §1
# male C57Bl/6 mice = test: Elevated plus maze (EPM); format: in vivo; settings: 1.0 mg/kg i.p., 30 min after treatment, 5 min trial; for EPM total arm entries: vs vehicle
# Description: Adult male C57BL/6 mice aged 6–10 weeks (mean weight 24 ± 0.5 g) were purchased from Charles River Labs (Senneville, QC). Animals were group housed (three per cage) with ad libitum access to food, water, and environmental enrichment and maintained on a 12 h light/dark cycle. Mice were randomly assigned to receive i.p. injections of vehicle (1:1:18 ethanol:emulphor:saline) or 0.1–10 mg/kg SCRA (n ≥ 4 per group). All protocols have been described previously and were in accordance with the guidelines detailed by the Canadian Council on Animal Care and approved by the Animal Research Ethics Board and the Scientific Merit Review Committee for Animal Behaviour at the University of Saskatchewan. The following steps were taken to ensure our study was in keeping with the ARRIVE guidelines: (1) power analyses were conducted to determine the minimum number of animals required for the study; (2) animals were purchased—rather than bred—to limit animal waste; and (3) all assessments of animal behaviour were made by individuals blinded to the treatment group,[57].
# EPM was conducted according to methods adapted from Marks et al.. The EPM was built from a plywood base painted blue with blue corrugated plastic floor and walls. The floor of the maze was composed of perpendicular interlocking arms (110 cm long × 10 cm wide) with two arms having 45 cm walls (closed arms) and two arms having no walls and a 0.5 cm edge (open arms), all elevated 45 cm from the ground. Trials began with the mouse in the central zone facing an open arm. Trials lasted 5 min and began 30 min after SCRA treatment. An arm entry was considered to be all four limbs leaving the central zone. Arm entries and the percent time spent in open versus closed arms were recorded by an observer blinded to the treatment group. Less time in the open arms and more time in the closed arms was used as a model of anxiogenic behaviour.
# [9] = bottom of the concentration–response curve, mean ± SEM
# T1 sequence (P21554 whole entry): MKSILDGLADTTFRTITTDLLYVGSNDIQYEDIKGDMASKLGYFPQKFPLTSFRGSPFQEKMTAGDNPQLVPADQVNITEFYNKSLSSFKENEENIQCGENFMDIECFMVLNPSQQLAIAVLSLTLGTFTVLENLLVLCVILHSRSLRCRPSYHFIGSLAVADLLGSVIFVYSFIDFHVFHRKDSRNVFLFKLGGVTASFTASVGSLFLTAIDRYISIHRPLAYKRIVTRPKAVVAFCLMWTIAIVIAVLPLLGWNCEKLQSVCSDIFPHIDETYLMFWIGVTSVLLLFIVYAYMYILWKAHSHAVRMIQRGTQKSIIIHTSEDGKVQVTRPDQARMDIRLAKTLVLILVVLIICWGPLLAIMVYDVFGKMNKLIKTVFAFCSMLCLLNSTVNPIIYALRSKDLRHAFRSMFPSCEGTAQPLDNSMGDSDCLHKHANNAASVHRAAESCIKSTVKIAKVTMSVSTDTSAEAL
# T2 sequence (P34972 whole entry): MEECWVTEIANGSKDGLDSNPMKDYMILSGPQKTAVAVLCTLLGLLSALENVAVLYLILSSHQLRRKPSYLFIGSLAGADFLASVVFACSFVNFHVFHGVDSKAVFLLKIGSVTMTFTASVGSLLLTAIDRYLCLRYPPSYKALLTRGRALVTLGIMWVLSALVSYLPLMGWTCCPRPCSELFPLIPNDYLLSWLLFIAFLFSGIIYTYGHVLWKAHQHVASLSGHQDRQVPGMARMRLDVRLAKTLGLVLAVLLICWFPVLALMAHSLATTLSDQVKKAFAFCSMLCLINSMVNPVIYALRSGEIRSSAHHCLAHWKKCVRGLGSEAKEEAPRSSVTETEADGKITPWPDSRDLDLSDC
SMILES,Ki (hCB1R [1]),"CB1R [^3H]CP55,940 Emin (hCB1R [1]; [9])",EC50 (hCB1R [2]),Emax (hCB1R [2]),"CB1R versus CB2R selectivity, βarrestin2 recruitment (hCB1R [3])",EC50 (hCB1R [3]),Emax (hCB1R [3]),"βarrestin2 recruitment to CB1R, activity in words (hCB1R [3])",Ki (hCB2R [4]),"CB2R [^3H]CP55,940 Emin (hCB2R [4])",EC50 (hCB2R [5]),Emax (hCB2R [5]),EC50 (hCB2R [6]),Emax (hCB2R [6]),"βarrestin2 recruitment to CB2R, activity in words (hCB2R [6])","CB1R bias between cAMP inhibition and βarrestin2 recruitment, ∆∆LogR (cAMP—βarr2), in words (hCB1R [7])","CB2R bias between cAMP inhibition and βarrestin2 recruitment, ∆∆LogR (cAMP—βarr2), in words (hCB2R [8])","Affinity for CB2R compared with CP55,940, in words (hCB2R [4])",other results
CCC(Cl)CCn1nc(C(=O)NC(C(N)=O)C(C)C)c2ccccc21 (stereo not shown) [3-chloro AB-PINACA],170 nM,65 ± 5.1 %,0.04 nM,94 ± 2.8%,more potent for CB2R-dependent recruitment of βarrestin2 than CB1R-dependent recruitment of βarrestin2,140 nM,340 ± 11%,greater potency and produced supramaximal EMax responses,52 nM,84 ± 4.3 %,19 nM,87 ± 15%,8.8 nM,130 ± 4.5%,greater potency and produced supramaximal EMax responses,did not display a bias,significant bias toward the recruitment of βarrestin2,,"CB1R versus CB2R selectivity, cAMP inhibition potency (hCB1R [2]; CB1R vs CB2R): more potent at CB1R relative to CB2R"
O=C(Oc1cccc2cccnc12)c1nn(CCCCCF)c2ccccc12 [5-fluoro NPB-22],47 nM,2.3 ± 7.8%,53 nM,96 ± 7%,,830 nM,210 ± 12%,"equipotent, but produced supramaximal EMax responses",4.3 nM,34 ± 8.1 %,3.2 nM,110 ± 7.6%,280 nM,120 ± 3.7%,"not different with regard to potency relative to the reference agonist CP55,940, and produced supramaximal EMax responses",significant bias toward the recruitment of βarrestin2,did not display a bias,,
CCCC(F)Cn1nc(C(=O)NC(C(N)=O)C(C)C)c2ccccc21 (stereo not drawn) [AB-PINACA N-(2-fluoropentyl) isomer],1.6 nM,76 ± 6.2 %,7.3 nM,75 ± 7.5%,more potent for CB2R-dependent recruitment of βarrestin2 than CB1R-dependent recruitment of βarrestin2,240 nM,204 ± 10%,greater potency and produced supramaximal EMax responses,270 nM,2.8 ± 8.1 %,10 nM,91 ± 3.2%,9.4 nM,140 ± 12%,greater potency and produced supramaximal EMax responses,did not display a bias,significant bias toward the recruitment of βarrestin2,significantly less affinity,"Competition of 1.0 nM [^3H]CP55,940 from CB1R, in words (hCB1R [1]): only partially competing; CB1R versus CB2R selectivity, receptor affinity (hCB1R [1]; CB1R vs CB2R [^3H]CP55,940 binding): greater affinity at CB1R relative to CB2R; CB1R-dependent inhibition of FSK-stimulated cAMP, activity in words (hCB1R [2]; relative to CP55940): partial agonist; Competition of 1.0 nM [^3H]CP55,940 from CB2R, in words (hCB2R [4]): completely displaced; Competition of 1.0 nM [^3H]CP55,940 from CB2R, in words (hCB2R [4]; listed as AB PINACA N-(2-fluoropentyl) isomer): fully competed"
"CCCCCCC(C)(C)c1ccc([C@@H]2C[C@H](O)CC[C@H]2CCCO)c(O)c1 [CP55,940, reference compound]",,,,,,,,,,0.0 ± 5.6%,,,,,,,,,"CB1R [^3H]CP55,940 Emin (hCB1R [1]): 0.0 ± 5.2%; EPM time in the central quadrant (male C57Bl/6 mice): majority of their time in the central quadrant immobile; EPM total arm entries (male C57Bl/6 mice): reduced total arm entries"
CC(C)C(NC(=O)c1nn(Cc2cccc(F)c2)c2ccccc12)C(N)=O (stereo not shown) [meta-AB-FUBINACA],16 nM,30 ± 2.9 %,5.7 nM,91 ± 12%,minimally active at CB1R but agonists at CB2R,> 10000 nM,22 ± 6.9%,Inactive at βarrestin2,0.63 nM,89 ± 6.3 %,5.4 nM,86 ± 13%,280 nM,130 ± 3.7%,"not different with regard to potency relative to the reference agonist CP55,940, and produced supramaximal EMax responses",,did not display a bias,significantly greater affinity,
CC(C)C(NC(=O)c1nn(Cc2ccccc2F)c2ccccc12)C(N)=O (stereo not shown) [ortho-AB-FUBINACA],2.7 nM,16 ± 5.4%,3.6 nM,83 ± 8.4%,more potent for CB2R-dependent recruitment of βarrestin2 than CB1R-dependent recruitment of βarrestin2,810 nM,280 ± 11%,"equipotent, but produced supramaximal EMax responses",0.93 nM,17 ± 1.2%,0.06 nM,110 ± 6.7%,140 nM,120 ± 3.1%,"not different with regard to potency relative to the reference agonist CP55,940, and produced supramaximal EMax responses",significant bias toward the recruitment of βarrestin2,significant bias toward the inhibition of cAMP,significantly greater affinity,"Competition of 1.0 nM [^3H]CP55,940 from CB2R, in words (hCB2R [4]): completely displaced"
"CCCCCc1cc(O)c2c(c1)OC(C)(C)[C@@H]1CCC(C)=C[C@@H]21 [∆^9-THC, ∆^9-tetrahydrocannabinol, reference compound]",,,,,,,,,,65 ± 7.6 %,,48 ± 3.8%,,58 ± 1.1%,"significantly lower efficacy, but similar potency",,did not display a bias,,"CB2R-dependent inhibition of FSK-stimulated cAMP, activity in words (hCB2R [5]; relative to CP55,940): significantly lower efficacy; EPM open arm entries (male C57Bl/6 mice): increased open arm entry; EPM time in the open arms (male C57Bl/6 mice): greater amount of time spent in the open arms; EPM total arm entries (male C57Bl/6 mice): did not change total arm entries"
